Source: patent publication US20150315188A1, “COMPOUNDS AND METHODS FOR TREATMENT OF HYPERTENSION” (MEDIVATION TECHNOLOGIES, INC., priority 2012, published 2015)

Tests used:
Design in all cases: purchased Milipore (Millipore)
[1] = biological target: T1, Human adrenergic α2A receptor (Homo sapiens, UniProt P08913); experiment: Radioligand binding, adrenergic α2A (Protocol Group B); conditions: Protocol Group B; for Percentage inhibition of ligand binding, Adrenergic α2A (0.1 μM): 0.1 μM compound
T1 sequence (P08913 1-465): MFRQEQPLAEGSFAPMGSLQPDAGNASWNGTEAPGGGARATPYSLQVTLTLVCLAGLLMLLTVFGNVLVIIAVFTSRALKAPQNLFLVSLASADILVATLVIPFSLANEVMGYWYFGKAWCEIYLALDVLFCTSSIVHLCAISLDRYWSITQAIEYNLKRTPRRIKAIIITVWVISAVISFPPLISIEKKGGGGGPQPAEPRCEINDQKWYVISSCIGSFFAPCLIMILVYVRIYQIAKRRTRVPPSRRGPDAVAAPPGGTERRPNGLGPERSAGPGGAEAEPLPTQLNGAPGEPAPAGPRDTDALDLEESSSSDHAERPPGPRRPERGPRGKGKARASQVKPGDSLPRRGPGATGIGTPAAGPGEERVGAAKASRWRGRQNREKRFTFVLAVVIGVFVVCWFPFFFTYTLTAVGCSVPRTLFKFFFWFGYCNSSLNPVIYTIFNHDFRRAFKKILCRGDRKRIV
Procedure, shortened: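 Membranes from recombinant cells expressing the receptor, in 50 mM Tris-HCl pH 7.4 with 5 mM MgCl2, 1 mM CaCl2, 0.2% BSA; compounds incubated with 2 nM [^3H]MK-912 for 60 min at 25° C. Nonspecific binding defined by 10 μM rauwolscine; filtration, counting; percent inhibition of specific binding, or estimated Ki.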

[2] = biological target: T2, Human adrenergic α2B receptor (Homo sapiens, UniProt P18089); experiment: Radioligand binding, adrenergic α2B (Protocol Group B); conditions: Protocol Group B; for Percentage inhibition of ligand binding, Adrenergic α2B (10 nM) / inhibition at 0.01 µM: 10 nM compound; for Percentage inhibition of ligand binding, Adrenergic α2B (30 nM) / inhibition at 0.03 µM: 30 nM compound; for Percentage inhibition of ligand binding, Adrenergic α2B (30 nM): 0.03 µM; for inhibition at 0.01 µM: read-out: Percentage inhibition of ligand binding, Adrenergic α2B (10 nM); for inhibition at 0.03 µM: read-out: Percentage inhibition of ligand binding, Adrenergic α2B (30 nM); for Ki: estimated Ki, read-out: Ki α2B
T2 sequence (P18089 1-450): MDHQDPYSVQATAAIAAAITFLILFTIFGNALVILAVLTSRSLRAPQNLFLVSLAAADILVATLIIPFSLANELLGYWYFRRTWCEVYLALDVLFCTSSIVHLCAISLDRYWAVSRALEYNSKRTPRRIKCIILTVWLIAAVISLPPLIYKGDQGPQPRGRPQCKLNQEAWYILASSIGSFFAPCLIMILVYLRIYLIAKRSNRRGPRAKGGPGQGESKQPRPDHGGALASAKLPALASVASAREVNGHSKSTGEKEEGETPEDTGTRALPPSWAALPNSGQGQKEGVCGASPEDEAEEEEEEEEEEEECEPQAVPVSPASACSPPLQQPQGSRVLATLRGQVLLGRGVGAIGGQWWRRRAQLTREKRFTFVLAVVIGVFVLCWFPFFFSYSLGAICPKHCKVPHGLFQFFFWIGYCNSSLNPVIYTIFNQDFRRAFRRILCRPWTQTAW
Procedure, shortened: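 Recombinant human α2B receptor membranes incubated with compounds in 50 mM Tris-HCl pH 7.4, 5 mM MgCl2, 1 mM CaCl2, 0.2% BSA, 1% DMSO vehicle. Non-specific binding defined with 10 μM rauwolscine. Values are percent inhibition of specific binding or estimated Ki.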

[3] = biological target: T3, Human adrenergic α1B receptor (Homo sapiens, UniProt P35368); experiment: Radioligand binding, adrenergic α1B (Protocol Group B); conditions: Protocol Group B; for Percentage inhibition of ligand binding, Adrenergic α1B (0.1 μM): 0.1 μM compound
T3 sequence (P35368 1-520): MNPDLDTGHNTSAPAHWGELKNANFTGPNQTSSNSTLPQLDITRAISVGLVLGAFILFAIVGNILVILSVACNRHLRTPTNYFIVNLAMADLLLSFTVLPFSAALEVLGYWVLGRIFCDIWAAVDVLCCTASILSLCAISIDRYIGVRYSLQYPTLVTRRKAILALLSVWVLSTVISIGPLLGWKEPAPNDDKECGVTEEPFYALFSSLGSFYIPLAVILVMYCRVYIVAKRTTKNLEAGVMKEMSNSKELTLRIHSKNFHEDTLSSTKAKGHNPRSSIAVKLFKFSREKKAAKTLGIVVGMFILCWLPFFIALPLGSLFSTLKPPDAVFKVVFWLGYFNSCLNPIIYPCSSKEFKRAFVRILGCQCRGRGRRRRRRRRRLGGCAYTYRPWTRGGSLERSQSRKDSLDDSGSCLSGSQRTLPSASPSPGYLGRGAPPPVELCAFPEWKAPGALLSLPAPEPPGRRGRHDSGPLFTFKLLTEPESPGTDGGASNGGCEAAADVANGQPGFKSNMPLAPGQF
Procedure, shortened: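 Recombinant human α1B membranes incubated with test compound and 0.3 nM [3H]prazosin, 60 min at 25 °C, in 50 mM Tris-HCl pH 7.4, 10 mM MgCl2, 1 mM EDTA; nonspecific binding with 10 μM prazosin. Filter-bound radioactivity counted; values are % inhibition of specific binding or estimated Ki.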

SMILES	Percentage inhibition of ligand binding, Adrenergic α2A (0.1 μM) [1]	Percentage inhibition of ligand binding, Adrenergic α2A (0.3 μM) ([1]; 0.3 μM compound)	Percentage inhibition of ligand binding, Adrenergic α2B (10 nM) ([2]; 0.01 µM)	Percentage inhibition of ligand binding, Adrenergic α2B (30 nM) [2]	Percentage inhibition of ligand binding, Adrenergic α2B (0.1 μM) ([2]; 0.1 μM compound)	Percentage inhibition of ligand binding, Adrenergic α1B (0.1 μM) [3]	Percentage inhibition of ligand binding, Adrenergic α1B (0.3 μM) ([3]; 0.3 μM compound)	Percentage inhibition of ligand binding, Adrenergic α2B (10 nM) [2]	inhibition at 0.01 µM [2]	inhibition at 0.03 µM [2]	inhibition at 0.3 µM ([1]; 0.3 μM compound, read-out: Percentage inhibition of ligand binding, Adrenergic α2A (0.3 μM))	inhibition at 0.1 µM ([2]; 0.1 μM compound, read-out: Percentage inhibition of ligand binding, Adrenergic α2B (0.1 μM))	Ki [2]	inhibition at 0.3 µM ([3]; 0.3 μM compound, read-out: Percentage inhibition of ligand binding, Adrenergic α1B (0.3 μM))
Cc1cc2c3c(n(CC(C)(O)c4ccncc4)c2cc1Cl)CCN1CCCC31 (single isomer, unassigned) [50d]	−9%	−4%	−8%	−2%	13%	−8%	4%	–	–	–	–	–	–	–
CC(O)(Cn1c2c(c3cc(Cl)cc(F)c31)C1CCCN1CC2)c1ccncc1 (single isomer, unassigned) [52c]	7%	12%	–	11%	10%	−6%	0%	9%	–	–	–	–	–	–
CC(O)(Cn1c2c(c3cc(Cl)cc(F)c31)C1CCCN1CC2)c1ccncc1 (single isomer, unassigned) [52d]	−6%	1%	–	–	1%	−1%	27%	–	9%	6%	–	–	–	–
CC(O)(Cn1c2c(c3cc(Cl)cc(F)c31)C1CCCN1CC2)c1cccnc1 (single isomer, unassigned) [53a]	60%	–	–	–	–	12%	–	–	87%	97%	74%	98%	1.7 nM	50%
CC(O)(Cn1c2c(c3cc(Cl)cc(F)c31)C1CCCN1CC2)c1cccnc1 (single isomer, unassigned) [53b]	34%	54%	74%	91%	97%	4%	33%	–	–	–	–	–	1.8 nM	–
CC(O)(Cn1c2c(c3cc(Cl)cc(F)c31)C1CCCN1CC2)c1cccnc1 (single isomer, unassigned) [53c]	−10%	−15%	−4%	4%	1%	1%	−6%	–	–	–	–	–	–	–
